Results as given in US20040092890A1, “Catheter lock solution including a photo-oxidant” (priority 2003, published 2004).

Tests used:
Enterobacter Faecalis = assay: Effect of methylene blue on concentration of a gram positive organism without light exposure (FIG. 3); assay type: cell-based
Procedure: FIG. 3 is a representation of the effect of methylene blue (12 mg/100 ml) on concentration of a gram positive organism, Enterobacter Faecalis, without light exposure.
(§1) In a series of tests, with a gram negative and a gram positive organism, methylene blue inactivated all bacteria within 1 day, while heparin and a 4% concentration of citrate caused no effect on gram positive organisms (FIGS. 2, 3). Methylene blue also advantageously colors the lock solution blue, which provides a useful tool to medical personnel in preventing confusion between the lock solution and any other solution that might be present in a syringe or the catheter.
FIG. 3 is a representation of the effect of methylene blue (12 mg/100 ml) on concentration of a gram positive organism, Enterobacter Faecalis, without light exposure. […] It is expected that illumination will augment bacterial killing by methylene blue even more.

[1] = Relative density of citrate solutions (FIG. 6); assay type: physicochemical
Source text: It is of course understood that the densities of citrate solutions increase as the concentrations of citrate therein increase.
The densities of various formulations of various catheter lock solutions are directly related to the citrate concentration, as reflected in the linear graph set forth in FIG. 6.

gram negative bacteria = conditions: large numbers of bacteria; cited from earlier work
Escherichia Coli = assay: Effect of methylene blue on concentration of a gram negative organism without light exposure (FIG. 2); assay type: cell-based
Procedure: FIG. 2 is a graph depicting the effect of methylene blue (12 mg/100 ml) on concentration of a gram negative organism, Escherichia Coli, without light exposure.
as §1
FIG. 2 is a representation of the effect of methylene blue (12 mg/100 ml) on concentration of a gram negative organism, Escherichia Coli, without light exposure. […] It is expected that illumination will augment bacterial killing by methylene blue even more.

gram-negative organisms = assay: Killing of gram-negative organisms by methylene blue 0.01%; conditions: methylene blue 0.01% (10 mg/100 mL)
[2] = methylene blue 12 mg/100 ml, without light exposure

Molecule: O=C(O)CC(O)(CC(=O)O)C(=O)O [citrate]
- Effect on gram positive organisms (Enterobacter Faecalis; 4% concentration of citrate): no effect
- Relative density ([1]; 23% citrate): 1.120
- Relative density ([1]; citrate concentration of 0.24M): about 1.045
- Time until all gram negative bacteria are killed (gram negative bacteria): 1 to 7 days

Molecule: CN(C)c1ccc2nc3ccc(=[N+](C)C)cc-3sc2c1 [methylene blue]
- Time to inactivate all bacteria (Escherichia Coli; gram negative organism): ≤ 1 days
- Killing of E. Coli (Escherichia Coli; [2]): All E. Coli are killed within one day
- Time to inactivate all bacteria (Enterobacter Faecalis; gram positive organism): ≤ 1 days
- Killing of Enterobacter Faecalis (Enterobacter Faecalis; [2]): All Enterobacter are killed within one day
- Killing of gram-negative organisms (gram-negative organisms): kill gram-negative organisms within one day

Molecule: heparin
- Effect on gram positive organisms (Enterobacter Faecalis; heparin): no effect
